According to article PMC9413144, “Similar 5F-APINACA Metabolism between CD-1 Mouse and Human Liver Microsomes Involves Different P450 Cytochromes” (Metabolites, 2022):

What was measured:
[1] = target: CD-1 mouse liver microsomes; experiment: Steady-state kinetics for 5F-APINACA metabolism by CD-1 mouse liver microsomes; format: in vitro ADME
Experimental: (§1) The in vitro 5F-APINACA analyses relied on reactions with human liver microsomes 150 (HLM150) as a model for the average adult human liver and CD-1 mouse liver microsomes as the standard for SCB studies. In a 96-half-well microplate, reaction conditions included human or mouse liver microsomes in 100 mM potassium phosphate buffer pH 7.4, 0.1% methanol (co-solvent), and 5F-APINACA concentrations ranging from 0 to 250 µM. The microplates were preincubated for 15 min at 37 °C with shaking at 350 rpm using a BMG Labtech THERMOstar incubator (Ortenberg, Germany). The addition of an NADPH-regenerating system (4 U/mL glucose-6-phosphate dehydrogenase, 12 mM glucose 6-phosphate, 12 mM MgCl2, 4 mM NADP^+) initiated the reaction. Reactions were quenched by adding an equal volume of ice-cold acetonitrile containing an internal standard (2 μM acenocoumarol final). Samples were chilled on ice for 10 min to optimize precipitation of proteins in phosphate buffer. After 3500 rpm centrifugation at 4 °C for 15 min using a Sorvall ST 16R centrifuge (Thermo Scientific; Waltham, MA, USA), the supernatant was transferred to HPLC vials for HPLC analyses. Standards for metabolite quantifications were prepared with human or mouse liver microsomes in 100 mM potassium phosphate buffer pH 7.4, 0.1% methanol (co-solvent), and 5OH-APINACA concentrations ranging from 0 to 15 µM. The microplates were preincubated for 15 min at 37 °C with shaking at 350 rpm. Reactions were initiated upon addition of the NADPH-regenerating system or 100 mM potassium phosphate as a negative control. For kinetic studies, initial control experiments were carried out to determine the lowest protein concentration and optimal reaction time within the linear response range for all observed metabolites reflecting steady-state conditions. Each set of steady-state reactions were performed at least in triplicate and replicated two times at a minimum. The composition of reactions was determined by liquid chromatographic analysis involving detection of analytes via UV/visible absorbance and mass spectroscopy (Section 2.5).
(§2) We employed explicit equations and numerical methods to model kinetic profiles. In the first case, metabolite levels were used to calculate initial reaction rates for plotting against substrate concentration with GraphPad Prism 9.2 from GraphPad Software, Inc. (San Diego, CA, USA). […] For the numerical methods, ordinary differential equations (ODEs) describing single-substrate (ES) and multi-substrate (ESS) binding kinetics were initially used to fit the models to the primary metabolite formation datasets. The AICc was used to determine the most appropriate model for the same dataset. Predicted parameter estimates from the most appropriate model were then used as initial parameter estimates for a variety of enzyme–substrate–sequential metabolism (ESP1P2P3) models. Schemes included fast- and slow-release rates of metabolite P2 from the enzyme site, either after the first binding event, the second binding event, or both events. A final best-fit model was selected based on AICc values, weighted residuals, and parameter estimate errors. For comparison of all multi-substrate-sequential metabolism models, including the final integrated model, all metabolite data were used simultaneously for model fitting. All association rate constants were fixed at 270 μM^−1 min^−1. When any rate constant within the model had to be held constant, a sensitivity analysis was performed over a range of values to ensure the validity of the results. Based on preliminary model fitting attempts, consistent enzyme kinetic schemes were developed for fitting to both human and CD-1 mouse liver microsomal reaction datasets. Mathematica version 12.3 (Wolfram Research, Champaign, IL, USA) was used for model fitting. The ODEs were numerically solved with NDSolve to provide interpolated functions of each enzyme species. […]

[2] = test system: mice; parameters: method as in PMID 30420360, PMID 32413436; details: with 1-aminobenzotriazole (ABT); cited from earlier work
[3] = target: pooled human liver microsomes (HLM150); experiment: Steady-state kinetics for 5F-APINACA metabolism by pooled human liver microsomes; format: in vitro ADME
Experimental: as §1, §2

[4] = test system: mouse Cyps in CD-1 mouse liver microsomes; experiment: Chemical inhibitor phenotyping of 5F-APINACA reactions, CD-1 mouse liver microsomes; format: in vitro ADME; details: 25 µM 5F-APINACA
Experimental: Inhibitor phenotyping experiments were carried out to qualitatively identify probable P450 isozymes catalyzing 5F-APINACA metabolic pathways present in our mouse and human liver microsome studies. Reactions contained 0.1 mg/mL protein (MLM or HLM), 25 µM 5F-APINACA, specific CYP inhibitors, 0.25% methanol, 1% acetonitrile, 1.0 mM NADPH-regenerating system, and 100 mM phosphate buffer, pH 7.4. […] For each experiment, the following were included as final concentrations: 10 µM furafylline for CYP1A2, 2 µM tranylcypromine (TCP) for CYP2A6, 3 µM ticlopidine (TIC) for CYP2B6, 16 µM montelukast (MTK) for CYP2C8, 10 µM sulfaphenazole (SPA) for CYP2C9, 16 µM (+)-N-3-benzylnirvanol (NBZ) for CYP2C19, 2 µM quinidine (QND) for CYP2D6, 30 µM 4-methylpyrazole (4MP) for CYP2E1, 1 µM ketoconazole (KCZ) for CYP3A4, and 1000 µM ABT for all CYPs. Each inhibitor stock solution (except FUR) was prepared in potassium phosphate buffer pH 7.4 with 1% acetonitrile (final) as a co-solvent. After a preincubation period of 15 min with shaking, the reactions were initiated with the addition of a NADPH-regenerating system and shaken. […] After 30 min, all reactions were quenched, processed, and analyzed by HPLC as previously described. […]
Sample reactions were analyzed to quantitate metabolites by absorbance. […] Parent drug and metabolite responses were normalized to the internal standard acenocoumarol and quantitated using a standard curve generated with 5OH-APINACA. The absorbance response corresponds to the indazole ring, which remained unmodified in these reactions, so that the relative absorbance response for all analytes were approximately the same, making inference for quantitation purposes possible.
(§3) Various statistical approaches were employed among the experimental studies to identify the most likely models for explaining the data or establish the significance of the findings. For the explicit kinetic models, the best-fit kinetic model and corresponding constants were determined using the extra sum-of-squares F test. […]

[5] = test system: human CYPs in human liver microsomes; experiment: Chemical inhibitor phenotyping of 5F-APINACA reactions, human liver microsomes; format: in vitro ADME; details: 25 µM 5F-APINACA; for effect of inhibitor on formation of 5F-APINACA metabolites: 0.1 mg/mL HLM, 1000 µM ABT, 1 µM ketoconazole
Experimental: Inhibitor phenotyping experiments were carried out to qualitatively identify probable P450 isozymes catalyzing 5F-APINACA metabolic pathways present in our mouse and human liver microsome studies. Reactions contained 0.1 mg/mL protein (MLM or HLM), 25 µM 5F-APINACA, specific CYP inhibitors, 0.25% methanol, 1% acetonitrile, 1.0 mM NADPH-regenerating system, and 100 mM phosphate buffer, pH 7.4. […] For each experiment, the following were included as final concentrations: 10 µM furafylline for CYP1A2, 2 µM tranylcypromine (TCP) for CYP2A6, 3 µM ticlopidine (TIC) for CYP2B6, 16 µM montelukast (MTK) for CYP2C8, 10 µM sulfaphenazole (SPA) for CYP2C9, 16 µM (+)-N-3-benzylnirvanol (NBZ) for CYP2C19, 2 µM quinidine (QND) for CYP2D6, 30 µM 4-methylpyrazole (4MP) for CYP2E1, 1 µM ketoconazole (KCZ) for CYP3A4, and 1000 µM ABT for all CYPs. Each inhibitor stock solution (except FUR) was prepared in potassium phosphate buffer pH 7.4 with 1% acetonitrile (final) as a co-solvent. After a preincubation period of 15 min with shaking, the reactions were initiated with the addition of a NADPH-regenerating system and shaken. For FUR, the inhibitor was prepared in methanol and a microsomal reaction was carried out at 10 µM for 10 min prior to addition of 5F-APINACA. After 30 min, all reactions were quenched, processed, and analyzed by HPLC as previously described. The resultant values were normalized to reaction rates observed in absence of inhibitors to yield a percent inhibition value.
Sample reactions were analyzed to quantitate metabolites by absorbance. Analytes were separated on a Waters XBridge BEH C18 3.5 μM column (4.6 mm × 100 mm) using an Agilent 1100 series HPLC instrument equipped with a VWD detector (280 nm). The mobile phase consisted of solvent A (10% solvent B, 90% water) and solvent B (0.1% formic acid/acetonitrile). A gradient method started at 80% solvent A for the first minute, then decreased to 70% for the next 6 min. […] Parent drug and metabolite responses were normalized to the internal standard acenocoumarol and quantitated using a standard curve generated with 5OH-APINACA. The absorbance response corresponds to the indazole ring, which remained unmodified in these reactions, so that the relative absorbance response for all analytes were approximately the same, making inference for quantitation purposes possible.
as §3

[6] = Combined adamantyl hydroxylation pathway, parentheses 95% confidence interval
[7] = formation of the metabolite from 5F-APINACA, parentheses 95% confidence interval
[8] = global fit to differential rate equations, calculated from micro-rate constants, parentheses standard error
[9] = global fit to differential rate equations, parentheses standard error
[10] = global fit to differential rate equations, second substrate binding (ESS), parentheses standard error

For “N-(1-adamantyl)-1-(5-pentyl)-1H-indazole-3-carboxamide [5F-APINACA]”, the “Ki (substrate inhibition)” value [1, 6] was 220 (74–1300) µM, the Vmax [1, 6] was 465 (330–730) pmol min^−1 mg protein^−1 and the Km ([1]; Combined adamantyl hydroxylation pathway, parentheses 95% confidence interval, read-out: Km or Kh) was 3.8 µM. For the same compound, the “hypothermia in mice on suppression of metabolism by pan-CYP inhibitor ABT” value [2] was “increased hypothermia”, the “Ki (substrate inhibition)” value [3, 6] was 300 (150–790) µM and the Km [3, 6] was 3.3 µM. The Vmax [3, 6] was 400 (330–510) pmol min^−1 mg protein^−1, the “contribution of CYPs to metabolism” value ([4]; CD-1 microsomes) was “sole role of CYPs” and the “dominant isozyme carrying out metabolic reactions” value ([4]; human CYP inhibitors) was “Cyp3a11”. For the same compound, the “other dominant contributors to adamantyl hydroxylation, but minor contributors to oxidative defluorination” value ([4]; implicated by inhibitor for CYP2C19) was “Cyp2c37, Cyp2c50, and Cyp2c54”, the “dominant isozyme for both pathways” value ([5]; chemical inhibitor phenotyping) was “CYP3A4” and the “isozymes with minor contributions to metabolism” value ([5]; chemical inhibitor phenotyping) was “CYP2C8, 2C19, and 2D6”.
For `CC(=O)N1CCN(c2ccc(OCC3COC(Cn4ccnc4)(c4ccc(Cl)cc4Cl)O3)cc2)CC1` (centres unmarked) [ketoconazole, reference compound], the “effect of inhibitor on formation of 5F-APINACA metabolites” value [5] was “inhibition of these pathways”.
For `Nn1nnc2ccccc21` [ABT, 1-aminobenzotriazole, reference compound], the “effect of inhibitor on formation of 5F-APINACA metabolites” value [5] was “completely blocked the formation of all metabolites”.
In the case of `O=C(NC12CC3CC(CC(C3)C1)C2)c1nn(CCCCCO)c2ccccc12` [5OH-APINACA], the Vmax [1, 7] is reported as 690 (650–730) pmol min^−1 mg protein^−1, the “h (Hill coefficient)” value [1, 7] is reported as 1.4 (1.0–1.8) and the Km1 [1, 8] is reported as “((k2 + k3 + k4)/k1) 3.75 (0.21) µM”. The kcat1/Km1 [1, 9] was 0.238 (0.017) mL min^−1 nmol^−1, the kcat1 ([1]; global fit to differential rate equations, rates normalized to total CYP (0.67 μM), parentheses standard error) was “k3 0.89 (0.04) min^−1” and the Km2 [1, 10] was “((k6 + k7 + k8)/k5) 122 (6) µM”. The kcat2 [1, 10] was “k7 1.17 (0.05) min^−1”, the kcat2/Km2 [1, 10] was 0.0096 (0.0006) mL min^−1 nmol^−1 and the Vmax ([3]; formation of the metabolite from 5F-APINACA, 0.1 mg/mL protein, parentheses 95% confidence interval) was 465 (446–485) pmol min^−1 mg protein^−1. The Km1 [3, 8] was “((k2 + k3 + k4)/k1) 5.69 (0.35) µM”, the kcat1/Km1 [3, 9] was 0.193 (0.015) mL min^−1 nmol^−1 and the kcat1 ([3]; global fit to differential rate equations, rates normalized to total CYP (0.38 μM), parentheses standard error) was “k3 1.10 (0.35) min^−1”. The Km2 [3, 10] was “((k6 + k7 + k8)/k5) 181 (10) µM”, the kcat2 [3, 10] was “k7 1.23 (0.1) min^−1” and the kcat2/Km2 [3, 10] was 0.0065 (0.0013) mL min^−1 nmol^−1.
